# Results reported in patent US20240270762A1, “PENICILLIN-BINDING PROTEIN INHIBITORS” (priority 2021, published 2024).
# Read-outs that look alike come from different tables or passages of the source.
# Key:
# A. baumannii ATCC 19606 = assay: microbe, parasite or virus in culture; type: cell-based; conditions: Acinetobacter baumannii, ATCC19606, read-out: MIC, A. baumannii ATCC 19606
# E. coli 901C = assay: microbe, parasite or virus in culture; type: cell-based; conditions: Escherichia coli, read-out: MIC E. coli 901C
# N. gonorrhoeae WHO G = assay: Liquid broth MIC in Fastidious broth; conditions: Neisseria gonorrhoeae
# E. coli ATCC 25922 = assay: microbe, parasite or virus in culture; type: cell-based; conditions: Escherichia coli, ATCC25922, read-out: MIC E. coli 25922
# [1] = molecular target: T1, PBP2 from Neisseria gonorrhoeae (FA19) (Neisseria gonorrhoeae, UniProt P08149); assay: Bocillin-FL fluorescence polarization competition binding, N. gonorrhoeae PBP2; conditions: fluorescence polarization competition binding assay using Bocillin-FL, read-out: N. gonorrhoeae PBP2 Potency
# T1 construct: made in house
# How it was run: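 Fluorescence polarization competition with 0.1 μM Bocillin-FL (fluorescent penicillin V) against 0.25 μM N. gonorrhoeae FA19 PBP2 in 50 mM Hepes pH 8.0, 300 mM NaCl, 10% glycerol. Boronic acid inhibitors were preincubated with PBP, then Bocillin-FL was added and FP read (490/520 nm) up to 60 min. EC50 is the concentration halving PBP-bound Bocillin-FL.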
# N. gonorrhoeae WHO X = assay: Liquid broth MIC in Fastidious broth; conditions: Neisseria gonorrhoeae
# K. pneumoniae SI-117 = assay: microbe, parasite or virus in culture; type: cell-based; conditions: Klebsiella pneumoniae, SI117, read-out: MIC K. pneumoniae SI-117
# N. gonorrhoeae WHO L = assay: Liquid broth MIC in Fastidious broth; conditions: Neisseria gonorrhoeae
# P. aeruginosa ATCC 35151 = assay: microbe, parasite or virus in culture; type: cell-based; conditions: Pseudomonas aeruginosa, ATCC35151, read-out: MIC P. aeruginosa ATCC 35151
# K. pneumoniae UMM = assay: microbe, parasite or virus in culture; type: cell-based; conditions: Klebsiella pneumoniae, read-out: MIC K. pneumoniae UMM
# [2] = tested on: P. aeruginosa (ΔmexAB-oprM); assay: Broth microdilution MIC in CAMHB; type: cell-based; conditions: Pseudomonas aeruginosa; read-out: MIC P. aeruginosa ΔmexAB-oprM
# E. coli AG100 = assay: microbe, parasite or virus in culture; type: cell-based; conditions: Escherichia coli, AG100, read-out: MIC E. coli AG100
# E. coli AG100A = assay: Broth microdilution MIC in CAMHB; type: cell-based; conditions: Escherichia coli, read-out: MIC E. coli AG100A
# P. aeruginosa ATCC 27853 = assay: microbe, parasite or virus in culture; type: cell-based; conditions: Pseudomonas aeruginosa, ATCC27853, read-out: MIC P. aeruginosa ATCC 27853
# E. coli D22 = assay: microbe, parasite or virus in culture; type: cell-based; conditions: Escherichia coli, D22, read-out: MIC E. coli D22
# K. pneumoniae 848844 = assay: microbe, parasite or virus in culture; type: cell-based; conditions: Klebsiella pneumoniae, 848844, read-out: MIC K. pneumoniae 848844
# B. pseudomallei Bp82 = assay: microbe, parasite or virus in culture; type: cell-based; conditions: Burkholderia pseudomallei, BP82, read-out: Minimum inhibitory concentration, B. pseudomallei Bp82
# [3] = read-out: Minimum Inhibitory Concentration (MIC), N. gonorrhoeae WHO G
# [4] = read-out: Minimum Inhibitory Concentration (MIC), N. gonorrhoeae WHO X
# [5] = read-out: Minimum Inhibitory Concentration (MIC), N. gonorrhoeae WHO L
# T1 sequence (P08149 whole entry): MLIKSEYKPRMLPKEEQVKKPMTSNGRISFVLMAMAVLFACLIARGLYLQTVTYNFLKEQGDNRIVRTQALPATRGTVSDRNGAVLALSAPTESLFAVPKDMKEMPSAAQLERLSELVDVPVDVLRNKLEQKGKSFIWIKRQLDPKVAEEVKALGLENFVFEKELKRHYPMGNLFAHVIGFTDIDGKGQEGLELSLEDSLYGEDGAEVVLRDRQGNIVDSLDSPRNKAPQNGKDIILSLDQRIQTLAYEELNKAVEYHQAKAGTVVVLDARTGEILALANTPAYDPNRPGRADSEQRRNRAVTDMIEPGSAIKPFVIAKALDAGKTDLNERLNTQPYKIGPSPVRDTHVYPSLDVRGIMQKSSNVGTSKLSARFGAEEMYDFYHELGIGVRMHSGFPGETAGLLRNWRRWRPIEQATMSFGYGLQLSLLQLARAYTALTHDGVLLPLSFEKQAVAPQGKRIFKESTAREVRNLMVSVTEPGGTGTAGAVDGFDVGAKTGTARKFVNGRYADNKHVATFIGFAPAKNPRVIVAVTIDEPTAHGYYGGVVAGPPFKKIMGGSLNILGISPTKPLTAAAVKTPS
SMILES,MIC (A. baumannii ATCC 19606) [µg/mL],MIC (E. coli 901C) [µg/mL],MIC (N. gonorrhoeae WHO G; [3]) [µg/mL],MIC (E. coli ATCC 25922) [µg/mL],EC50 [1] [µM],MIC (N. gonorrhoeae WHO X; [4]) [µg/mL],MIC (K. pneumoniae SI-117) [µg/mL],MIC (N. gonorrhoeae WHO L; [5]) [µg/mL],MIC (P. aeruginosa ATCC 35151) [µg/mL],MIC (K. pneumoniae UMM) [µg/mL],MIC [2] [µg/mL],MIC (E. coli AG100) [µg/mL],MIC (E. coli AG100A) [µg/mL],MIC (P. aeruginosa ATCC 27853) [µg/mL],MIC (E. coli D22) [µg/mL],MIC (K. pneumoniae 848844) [µg/mL],MIC (B. pseudomallei Bp82) [µg/mL],"MIC (N. gonorrhoeae WHO G; read-out: Minimum Inhibitory Concentration, WHO G) [µg/mL]","MIC (N. gonorrhoeae WHO X; read-out: Minimum Inhibitory Concentration, WHO X) [µg/mL]","MIC (N. gonorrhoeae WHO L; read-out: Minimum Inhibitory Concentration, WHO L) [µg/mL]"
"CCN1CCN(C(=O)NC(C(=O)N[C@H]2Cc3cccc(C(=O)O)c3OB2O)c2cc(P(=O)(O)O)ccc2F)C(=O)C1=O (stereo partly drawn) [Example 2, (3R)-3-(2-(4-ethyl-2,3-dioxopiperazine-1-carboxamido)-2-(2-fluoro-5-phosphonophenyl)acetamido)-2-hydroxy-3,4-dihydro-2H-benzo[e][1,2]oxaborinine-8-carboxylic acid]",> 128,< 1,1 to 2,> 128,< 10,16 to 32,> 128,> 64,< 1,32 to 64,8 to 16,32 to 64,32 to 64,> 128,2 to 4,> 128,,,,
"NCCN1CCN(C(=O)NC(C(=O)N[C@H]2Cc3cccc(C(=O)O)c3OB2O)c2ccc(P(=O)(O)O)cc2)C(=O)C1=O (stereo partly drawn) [Example 3, (3R)-3-(2-(4-(2-aminoethyl)-2,3-dioxopiperazine-1-carboxamido)-2-(4-phosphonophenyl)acetamido)-2-hydroxy-3,4-dihydro-2H-benzo[e][1,2]oxaborinine-8-carboxylic acid]",32 to 64,2 to 4,< 1,32 to 64,< 10,4 to 8,> 128,4 to 8,< 1,32 to 64,32 to 64,32 to 64,8 to 16,> 128,8 to 16,> 128,,,,
"O=C(O)c1cccc2c1OB(O)[C@@H](NC(=O)C(NC(=O)N1CCN(CC(F)(F)F)C(=O)C1=O)c1ccc(P(=O)(O)O)cc1)C2 (stereo partly drawn) [Example 4, (3R)-3-(2-(2,3-dioxo-4-(2,2,2-trifluoroethyl)piperazine-1-carboxamido)-2-(4-phosphonophenyl)acetamido)-2-hydroxy-3,4-dihydro-2H-benzo[e][1,2]oxaborinine-8-carboxylic acid]",> 128,< 1,< 1,> 128,< 10,4 to 8,> 128,4 to 8,8 to 16,> 128,32 to 64,> 128,8 to 16,> 128,8 to 16,> 128,,,,
"O=C(NCCN1CCN(C(=O)N[C@@H](C(=O)N[C@H]2Cc3ccc(F)c(C(=O)O)c3OB2O)c2cc(F)c(O)c(O)c2Cl)C1=O)Nc1ccc(O)cc1 [Example 279, (R)-3-((R)-2-(2-chloro-5-fluoro-3,4-dihydroxyphenyl)-2-(3-(2-(3-(4-hydroxyphenyl)ureido)ethyl)-2-oxoimidazolidine-1-carboxamido)acetamido)-7-fluoro-2-hydroxy-3,4-dihydro-2H-benzo[e][1,2]oxaborinine-8-carboxylic acid]",,,,,,,,,,,,,,,,,< 1,4 to 8,> 64,16 to 32
